In data set [1] the test system is neuropathic rats (sciatic nerve constriction), nerve-injured paw. Nature of the data set: Sciatic nerve constriction model of peripheral neuropathy, mechanical (paw pressure) and thermal (plantar) hyperalgesia. In kind it is in vivo, Sprague Dawley rats. As to conditions: for ED50: Rattus norvegicus, read-out: ED50 (antinociceptive potency); for ED50 / ED50 (antinociceptive potency): from % MPE vs. log dose curves; for antinociception in response to mechanical and thermal noxious stimuli on the nerve-injured paw: 1, 2, 4, 8 mg/kg IP. The procedure: (§1) Sprague Dawley (about 90 days old; 350 g) male rats were used (8 rats/drug/experimental group). R,S-norketamine, S-norketamine, R-norketamine (Yaupon Therapeutics Inc.) and R,S-ketamine (Sigma) were dissolved in saline and injected intraperitoneally (IP, 1 ml/kg). Each rat received four doses of a drug (1, 2, 4, 8 mg/kg; repeated block Latin square design; 48 h intervals). Saline served as control.
A sciatic nerve constriction model of peripheral neuropathy previously employed was used [Benett and Xie, 1988]. Briefly, under pentobarbital anesthesia (40 mg/kg, IP) the ligation of sciatic nerve and sham surgery were performed on the left and right hind paws, respectively. Proximal to the sciatic trifuracation, nerve (7 mm) was freed from adhering tissue and four loose ligatures were tied around nerve (1 mm apart) with 4.0 chromic gut, barely constricting the diameter of the nerve. The incision was closed in layers. […] No severe motor impairment was observed.
The analgesic properties of drugs were determined in neuropathic rats. Responsiveness to both mechanical and thermal noxious stimulations was determined in separate groups of rats. Rats were trained on three occasions before initiation of the study. Experiments were performed on days 7, 9, 11 and 14 of recovery from surgery (as this is the time of maximal hyperalgesia [Holtman et al., 2003]). Responses were assessed prior to (baseline, taken twice) and at 15-120 min after injection. The left and right paws were tested alternatively in each rat.
Mechanical hyperalgesia was measured using an increasing amount of weight to the paw [Randall and Selitto, 1957]. The hind paw was placed between a flat surface and a blunt pointer in the Basile Analgesimeter (UGO Basile) and increasing pressure (32 g/s) was applied to the dorsal side of the paw. Vocalization was used as end-point [vocalization threshold, VT (g)]. Cut-off at 300 g prevented tissue damage.
The thermal hyperalgesia was measured by plantar test which used a ramp heat stimulus [Hargreaves et al., 1988]. The radiant heat (60% intensity) was positioned under the glass floor directly beneath the plantar hind paw in Plantar Stimulator Analgesia Meter (IITC, Life Science). Latency of paw withdrawal from the heat source was measured [paw withdrawal threshold, PWT (s)]. A cut-off at 20 s prevented tissue damage.
All data were normalized for preinjection baseline values. Areas under the curves (AUC) were calculated for normalized data. Maximum possible effect was calculated as % MPE=(post drug response−baseline/cut off−baseline)×100. ED50 was calculated from % MPE vs. log dose curves. All data were presented as mean ±SEM of 8 rats. The statistical analysis was performed with use of one and two-way repeated measures analysis of variance (ANOVA), post hoc Student Newman Keulus (SNK), Dunnan and t tests.

In data set [2] the test system is intact (unoperated) rats. Nature of the data set: Ataxia, behavioral rating scale, intact rats. The conditions noted are these: pilot study. In kind it is in vivo, Sprague Dawley rats. The protocol:
as §1
(§2) The behavioral effects of drugs were determined in intact (unoperated) rats. Locomotor activity was determined using the Opto-Varimex infrared photocell-based activity monitor (Columbus Instrument). All activities were scored during 5 min sessions, prior to and 15, 60 and 120 min after injection. All testing were conducted between 10:00-13:00. Assessments were performed in 48 h intervals. Ataxia was determined at 0, […] after injection. The modified behavioral scale [Sturgon et al., 1979] was used for quantification (Table 1).

Data set [3] concerns intact (unoperated) rats. Nature of the data set: Locomotor activity in intact rats (Opto-Varimex activity monitor). In kind it is in vivo, Sprague Dawley rats. As to conditions: highest dose 8 mg/kg IP. The procedure:
as §1, §2

Data set [4] deals with Sprague-Dawley rats. As to the kind of experiment: Tail-flick test (radiant thermal stimulus). As to conditions: for antinociception, drug alone, IP: morphine 2-10 mg/kg, S-norketamine 0.75-3 mg/kg; for antinociception, drug alone, IT: morphine 3-30 μg, S-norketamine 10-100 μg. The class given is in vivo. The procedure: A dose response curve was generated by determining the analgesic effects of combining a constant dose of an opioid (e.g., morphine) along with an increasing dose of R,S-norketamine, Male and female Sprague-Dawley rats (n=8/sex) all with an approximate age of 85 to 90 days. Each rat should be weighed, prior to being subjected to any tests, on the day of the experiment. Experiments were performed in 72 hour intervals, and prior to the test, the rats were habituated for three days to handling and the tail-flick procedure without heat exposure. • 1 The tail-flick apparatus (IITC Model 33, Life Science, Woodland Hills, Calif.) is pre-warmed for at least 30 minutes. • 2 The intensity of the lamp is adjusted so that baseline tail-flick latency for the rats is equal to approximately 2.0 seconds. […] Tail-flick latency (“TFL”) is measured twice in an approximate 15 minute intervals and an average of the two times determines the baseline. • 8 Once the baseline value is determined, TFL is measured, following the injection of drugs, at times 15, 30, 60 and 120 minutes.
• Normalize data for baseline value (postinjection value at each time point−average preinjection baseline). • Calculate area under the curve (AUC0-120min) for normalized data. • Calculate maximum area under the curve (AUCmax), assuming 10 second response for each time point. • Calculate % MPE=(AUC0-120min)/(AUCmax)×100. • Post-injection thresholds are compared to the baseline threshold using paired t-test. • The difference between doses will be analyzed by 2 way RM ANOVA. • The difference between sex will be analyzed by 2 way RM ANOVA. • All data are presented as mean ±SEM of n rats.
• Normalized data (NOR): subtract average baseline from each value NOR=(post-injection TFL)−(pre-injection baseline) • 12 Percent maximum effect (MPE): • % MPE=(post-injection value−pre-injection baseline)/(cut-off−pre-injection baseline)×100% • 13 Area under the time action curve (AUC0-120 min) calculated by trapezoidal rule • Individual AUC0-120 min.=(average value over the time interval)×(time interval) • Total AUC0-120 min.: sum of individual AUC • Example: AUC0-120 min., % MPE=(15-0 min)×[(MPE0+MPE15)×½]+(30−15)×[(MPE30+MPE15)×½]
A study was undertaken to determine whether S-norketamine (“norKET”) enhances the analgesic effect of morphine (“MOR”). […] Saline (vehicle) served as a control. Responsiveness to thermal noxious stimuli was determined using the tail-flick assay (baseline tail-flick latency (TFL) ˜2-3 s; cut off TFL=10 s). TFL was determined at 0, 15, 30, 60, 90, and 120 min.
Male Sprague-Dawley rats, approximately 90 days old, weighting about 300 g were used. Intrathecal catheter: Chronic catheterization of the spinal subarachnoid space was performed according to Yaksh and Rudy (1976). Drugs: Morphine sulfate (Mallinckrodt) and S-norketamine hydrochloride (Yaupon Therapeutics, Inc.) were dissolved in saline. Saline served as control. Doses refer to salt forms.
Graded doses of morphine and S-norketamine alone as well as a fixed dose of morphine combined with various doses of S-norketamine were administered […] (IP) or intrathecally (IT) in volumes equal to 1 ml/kg and 10 μl, respectively. Doses were balanced by Latin square design: 2× (4×4). Injections were made at weekly intervals.
Tail flick latencies (TFL) were measured using a standard tail-flick apparatus (LifeScience). Preinjection baseline and cut-off times were equal to 2-3 s and 10 s, respectively. TFL was assessed twice prior to (baseline) and at fixed time points after injection. All data were normalized for baseline. The areas under the time action curves (AUC0-120 min) were calculated for normalized data. The percent of maximum effect was calculated as % MPE=[(TFL-baseline)/(10-baseline)×100] at each time point. Data are presented as mean ±SEM of (n) rats.
On the technique in general: Thermal pain tests record how soon the animal reacts.

For data set [5] the following is noted: Aun, 1999, cited from earlier work.
A short description of data set [6]: Plasma levels of S-norketamine versus antinociception (pilot study). In kind it is in vivo. As to conditions: after IP administration in rat. The procedure: Plasma concentration of S-norketamine 200-700 ng/ml was associated with the significant analgesic effect after IP administration in rat.
For data set [7], the system named is Sprague-Dawley rats. Nature of the data set: Opioid tolerance development, tail-flick test. As to conditions: for effect on oxycodone tolerance development: S-norketamine given with oxycodone, IP. The class given is in vivo. The procedure: A tail flick test as described above was administered intrapertoneally to eight Sprague-Dawley rats as described above. The * symbol denotes a statistically difference with oxycodone and norketamine combined versus the two drugs used alone. Data were analyzed with the SNK method, with P less than 0.05. […] A tail flick test as described above was administered intrapertoneally to eight Sprague-Dawley rats as described above. The * symbol denotes a difference with oxycodone used alone as compared to the combination of oxycodone with S norketameine and the +symbol denotes a difference from day 1. Data were analyzed with the SNK method, with P less than 0.05.

Another data set has as its system rat. Nature of the data set: Analgesic dose of norketamine in the rat. In kind it is in vivo. The procedure:
An “optimal” dose is defined as a dose of an analgesic, when taken alone, is sufficient to provide analgesic relief. In the rat, for example, an optimal dose of norketamine is about 8 mg/kg intraperitoneally (IP). A “sub-optimal” dose is defined as about 1 to about 60% of the optimal dose used to induce analgesia; more preferably about 5% to about 40%, and even more preferably about 10% to about 20%. A “sub-analgesic” does is defined as a dose at which little to no analgesic effect is provided. For example, a sub-analgesic dose of norketamine is less than about 3 mg/kg. Typically, a sub-analgesic dose correlates with less than about 5 AUC units or less than about 5% MPE (maximum possible effect).

In the next data set the test system is NMDA receptor. As to conditions: Ebert et al., 1997; cited from earlier work.
The next data set has as its system rats. As to conditions: intravenous or intraspinal; cited from earlier work.

Turning to `CNC1(c2ccccc2Cl)CCCCC1=O` (racemic) [R,S-ketamine, 2-(2-chlorophenyl)-2-(methylamino)-cyclohexanone, reference compound], in data set [1] (nerve-injured paw, IP), the ED50 was determined as 15.8 ± 0.38 mg/kg. Further, the ataxia result in the data set on intact (unoperated) rats [2] was “marked ataxia”.
On to `NC1(c2ccccc2Cl)CCCCC1=O` (racemic) [R,S-norketamine, 2-(2-chlorophenyl)-2-amino-cyclohexanone], for which, in [1] (nerve-injured paw, IP), the ED50 was 11.3 ± 0.23 mg/kg and the “duration of antinociceptive effect” value is on record as over 2 h. Besides, the “antinociception in response to mechanical and thermal noxious stimuli on the nerve-injured paw” value (from here on “antinociception in response”) in data set [1] (nerve-injured paw) is “dose-related antinociception”. Also, the “antinociception on the control (sham-operated) paw” value (from here on “antinociception on the control”) in data set [1] (IP) is “No antinociception”. Further, the “motor (depressive) / locomotor effect” value with intact (unoperated) rats [3] is listed as “less pronounced”. Moreover, the ataxia result with intact (unoperated) rats [2] was “no ataxia”.
As to `CN1CC[C@]23c4c5ccc(O)c4O[C@H]2[C@@H](O)C=C[C@H]3[C@H]1C5` [Morphine, reference compound], in the data set on Sprague-Dawley rats [4] (IP), the “antinociception, drug alone, IP” value is given as “dose-related antinociception”. Moreover, the “antinociception, drug alone, IT” value with Sprague-Dawley rats [4] is “dose-related antinociception”. The “% MPE” value in the data set with Sprague-Dawley rats [4] (morphine alone 30 μg IT) is reported as 60%; in the data set with Sprague-Dawley rats [4] (morphine alone 10 mg/kg IP), 100%.
As for `N[C@@]1(c2ccccc2Cl)CCCCC1=O` [R-norketamine], the “antinociception in response” value in data set [1] (nerve-injured paw) is reported as “attenuated, in dose-related fashion”. The “ED50 (antinociceptive potency)” value in data set [1] (nerve-injured paw, IP) turned out to be 51.1 ± 0.54 mg/kg. For the same molecule, the “antinociception on the control” value in data set [1] (IP) is given as “Neither drug had effect”.
With `CN[C@]1(c2ccccc2Cl)CCCCC1=O` [S-ketamine, reference compound], in data set [5], the “potency relative to R-ketamine” value was “twice as potent as R-ketamine”.
`N[C@]1(c2ccccc2Cl)CCCCC1=O` [S-norketamine]: the “antinociception in response” value in data set [1] (nerve-injured paw) is on record as “attenuated, in dose-related fashion”. Besides, the “ED50 (antinociceptive potency)” value in data set [1] (nerve-injured paw, IP) was determined as 7.3 ± 0.18 mg/kg. The “antinociception on the control” value in data set [1] (IP) is recorded as “Neither drug had effect”. Also, the “plasma concentration associated with the significant analgesic effect” value in [6] lay in the range of 200 to 700 ng/mL. Also, the “motor (depressive) / locomotor effect” value with intact (unoperated) rats [3] is recorded as “less for S than R isomer”. The ataxia result in the data set on intact (unoperated) rats [2] is recorded as “no ataxia”. For the same molecule, the “ability to enhance morphine analgesia compared with ketamine-morphine interaction” value in the data set on Sprague-Dawley rats [4] (IP, comparison with Holtman et al., 2003) is recorded as “greater than that previously demonstrated for ketamine-morphine”. Besides, the “antinociception, drug alone, IP” value in the data set with Sprague-Dawley rats [4] (IP) is reported as “did not produce an antinociceptive effect”. Further, the “antinociception, drug alone, IT” value in the data set on Sprague-Dawley rats [4] is “did not produce an antinociceptive effect”. Also, the “potentiation of the antinociceptive effect of low dose morphine, IP” value with Sprague-Dawley rats [4] (S-norketamine 0.75-3 mg/kg IP with morphine 3 mg/kg IP) is given as “dose-dependently potentiated”. The “potentiation of the antinociceptive effect of low dose morphine, IT” value in the data set on Sprague-Dawley rats [4] (S-norketamine 10-100 μg IT with morphine 0.5 μg IT) was “dose-dependently potentiated”. Moreover, in the data set with Sprague-Dawley rats [7] (S-norketamine given with morphine), the “effect on morphine tolerance” value is reported as “reduction of morphine tolerance”. Moreover, the “effect on oxycodone tolerance development” value is on record as “tolerance of oxycodone is inhibited” in the data set with Sprague-Dawley rats [7] and “attenuation of oxycodone tolerance development” in the data set on Sprague-Dawley rats [7] (listed as S-norketamine HCl).
As for `NC1(c2ccccc2Cl)CCCCC1=O` (centres unmarked) [norketamine, 2-(2-chlorophenyl)-2-amino-cyclohexanone], the “sub-analgesic dose (little to no analgesic effect)” value with rat (in vivo) is listed as “less than 3 mg/kg”. In addition, the “optimal dose (sufficient alone to provide analgesic relief)” value with rat (intraperitoneally (IP)) was “about 8 mg/kg”. Further, the “NMDA receptor binding relative to ketamine enantiomers” value in the data set with NMDA receptor is listed as “less tightly than either S- or R-ketamine”. Also, in data set [5] (speculated), the “anesthetic and analgesic potency relative to ketamine” value is listed as “one third that of ketamine”. Besides, the “adverse sequelae relative to an equal dose of ketamine” value in the data set on rats is “fewer of the adverse sequelae”.

One may read the ED50 as the dose at which the effect has come halfway, by size or by number of responders.

Values taken from US20080132531A1, “SYNERGISTIC COMBINATIONS OF N[…] OPIOID ANALGESICS” (Yaupon Therapeutics, Inc., priority 2005, published 2008).
